Reference: patent publication US20170107482A1, “ANIMAL CELL REGENERATION SPEED CONTROLLING METHOD AND ANIMAL CELL REGENERATION SPEED CONTROLLER” (TOYOTA BOSHOKU KABUSHIKI KAISHA, priority 2015, published 2017)

Tested on: Planarians (Dugesia japonica)
Experiment: Animal cell regeneration experiment (ii): head (eye) regeneration of cut planarians after immersion in Azakenpaullone
Format: in vivo
Details: 0.5 μM, 24 h immersion; for individuals died and disappeared before regeneration: among the total nine individuals
Description: Hereinafter, the present invention will be specifically described using Examples. In the following Examples 1 and 2, regeneration experiment was conducted using Planarians (Dugesia japonica) as one kind of flatworm.
Thereafter, the planarians belonging to Groups A and B were respectively placed in petri dishes, so that the amount of water per planarian was 2.5 mL, in a thermostat bath set to a temperature of 13° C. The planarians were grown for 14 days ([…]) under a condition and in an environment such that water was changed every three days. The respective regeneration states of their heads in this period were observed over time with an optical microscope every 24 hours after cutting to evaluate the degree of regeneration after 14 days had elapsed based on the following three references (see Teresa Adel et al., Dev Genes Evol (2008) 218:89-103, as for the references for the degree of regeneration). The planarians ranked as “regeneration degree 2” or “regeneration degree 3” were determined to “have been regenerated,” and those ranked as “regeneration degree 1” were determined to “be unregenerated.” The number of planarians determined to “have been regenerated” was counted over time, and the result thereof is indicated in Table 1.
“Regeneration degree 1”: Eyes being developed cannot be identified.
“Regeneration degree 2”: Eyes being developed can be identified.
“Regeneration degree 3”: Eyes can be identified.
Firstly, planarians having an equivalent size were selected, and divided into Group C (n=9) and Group D (n=9). For the planarians belonging to Group C, the living bodies were cut near the center at a timing in the same time zone as that for Group A in Example 1 (namely, immediately after the RGA turned downward from the maximum value immediately before) (see FIG. 2).
For the planarians (n=9) belonging to Group D, the living bodies were cut near the center at a timing in the same time zone as that for Group B in Example 1 (namely, immediately after the RGA turned upward from the minimum value immediately before) (see FIG. 2).
Thereafter, the planarians belonging to Groups C and D were respectively immersed for 24 hours in a solution of Azakenpaullone that is a drug suppressing normal differentiation at a concentration of 0.5 μM, then placed in petri dishes, so that the amount of water per planarian was 2.5 mL, in a thermostat bath set to a temperature of 13° C., and were grown for 15 days ([…]) under a condition and in an environment such that water was changed every three days. The respective regeneration states of their heads were observed over time with an optical microscope every 24 hours after cutting to evaluate the degree of regeneration after 15 days had elapsed in the same manner as in Example 1. At this time, the planarians were determined as to whether they “had been regenerated” or “were unregenerated” in the same manner as in Example 1. The number of planarians determined to “have been regenerated” was counted over time, and the result thereof is indicated in Table 2.
The treating method using Azakenpaullone was referred to a description of Teresa Adel et al., Dev Genes Evol 218(2008) 89-103.

O=C1Cc2c([nH]c3ccc(Br)cc23)-c2ncccc2N1 [Azakenpaullone]
1: Number of planarians determined to have been regenerated (cumulative) (Group C (n=9), cut immediately after RGA turned downward from maximum, 216 h after cutting)
5: Number of planarians determined to have been regenerated (cumulative) (Group C (n=9), cut immediately after RGA turned downward from maximum, 360 h after cutting)
3: Number of planarians determined to have been regenerated (cumulative) (Group C (n=9), cut immediately after RGA turned downward from maximum, 288 h after cutting)
four: individuals died and disappeared before regeneration (Group C, cut immediately after RGA turned downward)
three: individuals died and disappeared before regeneration (Group D, cut immediately after RGA turned upward)
2: Number of planarians determined to have been regenerated (cumulative) (Group C (n=9), cut immediately after RGA turned downward from maximum, 240 h after cutting) | Number of planarians determined to have been regenerated (cumulative) (Group C (n=9), cut immediately after RGA turned downward from maximum, 264 h after cutting)
4: Number of planarians determined to have been regenerated (cumulative) (Group C (n=9), cut immediately after RGA turned downward from maximum, 312 h after cutting) | Number of planarians determined to have been regenerated (cumulative) (Group C (n=9), cut immediately after RGA turned downward from maximum, 336 h after cutting)
6: Number of planarians determined to have been regenerated (cumulative) (Group D (n=9), cut immediately after RGA turned upward from minimum, 240 h after cutting) | Number of planarians determined to have been regenerated (cumulative) (Group D (n=9), cut immediately after RGA turned upward from minimum, 264 h after cutting) | Number of planarians determined to have been regenerated (cumulative) (Group D (n=9), cut immediately after RGA turned upward from minimum, 288 h after cutting) | Number of planarians determined to have been regenerated (cumulative) (Group D (n=9), cut immediately after RGA turned upward from minimum, 312 h after cutting) | Number of planarians determined to have been regenerated (cumulative) (Group D (n=9), cut immediately after RGA turned upward from minimum, 336 h after cutting) | Number of planarians determined to have been regenerated (cumulative) (Group D (n=9), cut immediately after RGA turned upward from minimum, 360 h after cutting)
0: Number of planarians determined to have been regenerated (cumulative) (Group C (n=9), cut immediately after RGA turned downward from maximum, 0 h after cutting) | Number of planarians determined to have been regenerated (cumulative) (Group C (n=9), cut immediately after RGA turned downward from maximum, 24 h after cutting) | Number of planarians determined to have been regenerated (cumulative) (Group C (n=9), cut immediately after RGA turned downward from maximum, 48 h after cutting) | Number of planarians determined to have been regenerated (cumulative) (Group C (n=9), cut immediately after RGA turned downward from maximum, 72 h after cutting) | Number of planarians determined to have been regenerated (cumulative) (Group C (n=9), cut immediately after RGA turned downward from maximum, 96 h after cutting) | Number of planarians determined to have been regenerated (cumulative) (Group C (n=9), cut immediately after RGA turned downward from maximum, 120 h after cutting) | Number of planarians determined to have been regenerated (cumulative) (Group C (n=9), cut immediately after RGA turned downward from maximum, 144 h after cutting) | Number of planarians determined to have been regenerated (cumulative) (Group C (n=9), cut immediately after RGA turned downward from maximum, 168 h after cutting) | Number of planarians determined to have been regenerated (cumulative) (Group C (n=9), cut immediately after RGA turned downward from maximum, 192 h after cutting) | Number of planarians determined to have been regenerated (cumulative) (Group D (n=9), cut immediately after RGA turned upward from minimum, 0 h after cutting) | Number of planarians determined to have been regenerated (cumulative) (Group D (n=9), cut immediately after RGA turned upward from minimum, 24 h after cutting) | Number of planarians determined to have been regenerated (cumulative) (Group D (n=9), cut immediately after RGA turned upward from minimum, 48 h after cutting) | Number of planarians determined to have been regenerated (cumulative) (Group D (n=9), cut immediately after RGA turned upward from minimum, 72 h after cutting) | Number of planarians determined to have been regenerated (cumulative) (Group D (n=9), cut immediately after RGA turned upward from minimum, 96 h after cutting) | Number of planarians determined to have been regenerated (cumulative) (Group D (n=9), cut immediately after RGA turned upward from minimum, 120 h after cutting) | Number of planarians determined to have been regenerated (cumulative) (Group D (n=9), cut immediately after RGA turned upward from minimum, 144 h after cutting) | Number of planarians determined to have been regenerated (cumulative) (Group D (n=9), cut immediately after RGA turned upward from minimum, 168 h after cutting) | Number of planarians determined to have been regenerated (cumulative) (Group D (n=9), cut immediately after RGA turned upward from minimum, 192 h after cutting) | Number of planarians determined to have been regenerated (cumulative) (Group D (n=9), cut immediately after RGA turned upward from minimum, 216 h after cutting)
